Earlier results on one molecule are cited in patent publication US20060104952A1, “Genomic barrier to viral disease” (priority 2004, published 2006).

Structures are written as SMILES.

This data set deals with genes. Particulars: ref 10 (CoQ10 supplementation, human skeletal muscle).

For `COC1=C(OC)C(=O)C(C/C=C(\C)CC/C=C(\C)CC/C=C(\C)CC/C=C(\C)CC/C=C(\C)CC/C=C(\C)CC/C=C(\C)CC/C=C(\C)CC/C=C(\C)CCC=C(C)C)=C(C)C1=O` [coenzyme Q10], the “number of genes whose expression is influenced” value is given as “at least 115 genes”.
